Calls of active or inactive are those of the source.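 How the source made its calls: active means visibly stopped the calcineurin reporter band on a blot from moving down to a smaller size, judged by eye; inactive means reporter band movement visibly unaltered.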

The test system of this assay is calcineurin (human, NFAT-based CaNAR1 reporter dephosphorylation). In words: inhibitors of CaNAR1 reporter dephosphorylation – TALL-104 cells, western blot, CherryPick01, mechanism study for lytic granule exocytosis inhibitor project (AID 720669). The conditions noted are these: CaNAR1 dephosphorylation shift, at 12 µM, active compounds read high. (In general: In western blotting, separated proteins are transferred to a membrane and probed.)
In general, inhibition refers to the change of the read-out against control, counted positive when it falls. On to `CCCCC[C@@H](C)N1C[C@@H](COCc2ccccc2)Oc2cc(N3CC[C@@H](N(C)C)C3)ccc2S1(=O)=O`, for which the inhibition was 0% (inactive).

As to `CC1=NOC(=O)/C1=C/c1ccc(-c2ccc(Cl)cc2)o1`, the inhibition is 0% (inactive).

Turning to `O=c1c2ccccc2sn1-c1ccccc1`, the inhibition was 0% (inactive).

Take `CC1COCC(C)N1C1=C(Cl)C(=O)c2ccccc2C1=O` (configuration not stated): the inhibition was 100%.

Take `COc1ccc(-c2cc(NC=O)c3ncc(-c4ccccc4)n3c2)cc1OC`: the inhibition is 0% (inactive).

As to `COC(=O)c1c(NC(=O)c2nc3ccccc3s2)sc2c1CC(C)(C)NC2(C)C`, the inhibition is 0% (inactive).

Take `COc1ccc(-n2sc3ccccc3c2=O)cc1`: the inhibition is 0% (inactive).

Regarding `Cc1ccc(S(=O)(=O)n2ccc3c(OCCOCCNCc4ccc(F)cc4)cccc32)cc1`, the inhibition is 0% (inactive).

For the molecule `O=C(Cn1sc2ccccc2c1=O)NC12CC3CC(CC(C3)C1)C2`, the inhibition was 0% (inactive).

On to `Cc1ccc(Nc2nc(NCc3ccco3)c3ccccc3n2)cc1`, for which the inhibition was 0% (inactive).

Regarding `CN(C)CCNC(=O)c1ccc(-c2cn3c(-c4ccc(Oc5ccccc5)cc4)cnc3cn2)cc1`, the inhibition is 0% (inactive).

With `CCCCC[C@@H](C)N1C[C@H](COCc2ccccc2)Oc2cc(N3CC[C@@H](N(C)C)C3)ccc2S1(=O)=O`, the inhibition is 0% (inactive).

As for `CCN(CC)CCCNc1ccc(-c2nnc(-c3ccc(OCC(C)C)cc3)o2)cn1`, the inhibition is 0% (inactive).

Consider `O=CNc1cc(-c2ccsc2)cn2c(-c3ccccc3)cnc12`, for which the inhibition was 0% (inactive).

For `O=c1c2ccc(F)cc2sn1-c1ccccc1`, the inhibition is 0% (inactive).

Consider `COc1ccc(N2C(=O)CC(Sc3nnc(-c4ccccc4)o3)C2=O)cc1` (configuration not stated), for which the inhibition is 0% (inactive).

Consider `CC(C)(c1ccccc1)c1ccc(OCC(O)CNC2CCN(Cc3ccccc3)CC2)cc1` (configuration not stated), for which the inhibition was 0% (inactive).

In the case of `O=C(Cn1sc2ccccc2c1=O)Nc1ccc(F)cc1`, the inhibition is 0% (inactive).

For the molecule `COc1ccccc1CNc1nc(NCc2ccc(C(C)C)cc2)c2sccc2n1`, the inhibition is 0% (inactive).

For `O=C(CN1C(=O)/C(=C\c2cccc(Br)c2)Oc2ccccc21)NCCCN1CCOCC1`, the inhibition was 0% (inactive).

Turning to `COc1ccc(-c2cc(NC=O)c3ncc(-c4cccc(OC)c4)n3c2)cc1`, the inhibition was 0% (inactive).

Regarding `CCCCC[C@@H](C)N1C[C@@H](COCc2ccccc2)Oc2cc(N3CC[C@H](N(C)C)C3)ccc2S1(=O)=O`, the inhibition was 0% (inactive).

(Values after PubChem BioAssay AID720669 (NMMLSC, 2013).)
